The values that follow come from ChEMBL document CHEMBL5442219.

Molecules are shown by their SMILES.

Holding throughout (conditions): Compound concentration 10 µM
Assay [1] has as its target Mu-type opioid receptor (Homo sapiens) (UniProt P35372).
In assay [2] the target is Muscarinic acetylcholine receptor M3 (Homo sapiens) (UniProt P20309).
Assay [3] has as its target 5-hydroxytryptamine receptor 2B (Homo sapiens) (UniProt P41595).
The target in assay [4] is Sigma non-opioid intracellular receptor 1 (Homo sapiens) (UniProt Q99720).
Chain of Sigma non-opioid intracellular receptor 1 (Homo sapiens) (Q99720 whole entry): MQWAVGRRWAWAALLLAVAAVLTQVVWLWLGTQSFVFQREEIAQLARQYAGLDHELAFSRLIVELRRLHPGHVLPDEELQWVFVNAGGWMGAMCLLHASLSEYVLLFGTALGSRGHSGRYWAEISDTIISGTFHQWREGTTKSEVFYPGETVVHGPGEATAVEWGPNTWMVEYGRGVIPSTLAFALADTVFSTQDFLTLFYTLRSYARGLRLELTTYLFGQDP
The target of assay [5] is 5-hydroxytryptamine receptor 1D (Homo sapiens) (UniProt P28221).
Chain of 5-hydroxytryptamine receptor 1D (Homo sapiens) (P28221 whole entry): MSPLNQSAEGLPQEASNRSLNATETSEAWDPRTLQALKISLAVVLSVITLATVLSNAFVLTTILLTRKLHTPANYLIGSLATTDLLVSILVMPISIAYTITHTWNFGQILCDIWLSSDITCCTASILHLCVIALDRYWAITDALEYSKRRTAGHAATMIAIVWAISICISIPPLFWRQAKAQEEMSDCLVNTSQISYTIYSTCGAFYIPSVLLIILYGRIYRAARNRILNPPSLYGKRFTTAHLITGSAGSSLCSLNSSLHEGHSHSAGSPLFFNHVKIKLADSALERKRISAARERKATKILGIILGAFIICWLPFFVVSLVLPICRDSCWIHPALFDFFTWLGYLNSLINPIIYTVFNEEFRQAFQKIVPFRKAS
In assay [6] the target is Histamine H2 receptor (Homo sapiens) (UniProt P25021).
Chain of Histamine H2 receptor (Homo sapiens) (P25021 whole entry): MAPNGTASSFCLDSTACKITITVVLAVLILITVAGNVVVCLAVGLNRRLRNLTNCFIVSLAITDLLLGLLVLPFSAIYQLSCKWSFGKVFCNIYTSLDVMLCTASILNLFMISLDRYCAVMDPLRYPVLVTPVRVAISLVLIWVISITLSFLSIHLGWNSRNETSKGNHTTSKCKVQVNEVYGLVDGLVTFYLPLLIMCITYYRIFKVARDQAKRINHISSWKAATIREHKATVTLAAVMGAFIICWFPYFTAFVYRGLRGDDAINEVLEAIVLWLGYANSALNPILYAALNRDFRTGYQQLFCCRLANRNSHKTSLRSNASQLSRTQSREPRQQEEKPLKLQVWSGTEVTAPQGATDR
Assay [7] deals with Histamine H4 receptor (Homo sapiens) (UniProt Q9H3N8).
The target in assay [8] is Sodium-dependent dopamine transporter (Homo sapiens) (UniProt Q01959).
Chain of Sodium-dependent dopamine transporter (Homo sapiens) (Q01959 whole entry): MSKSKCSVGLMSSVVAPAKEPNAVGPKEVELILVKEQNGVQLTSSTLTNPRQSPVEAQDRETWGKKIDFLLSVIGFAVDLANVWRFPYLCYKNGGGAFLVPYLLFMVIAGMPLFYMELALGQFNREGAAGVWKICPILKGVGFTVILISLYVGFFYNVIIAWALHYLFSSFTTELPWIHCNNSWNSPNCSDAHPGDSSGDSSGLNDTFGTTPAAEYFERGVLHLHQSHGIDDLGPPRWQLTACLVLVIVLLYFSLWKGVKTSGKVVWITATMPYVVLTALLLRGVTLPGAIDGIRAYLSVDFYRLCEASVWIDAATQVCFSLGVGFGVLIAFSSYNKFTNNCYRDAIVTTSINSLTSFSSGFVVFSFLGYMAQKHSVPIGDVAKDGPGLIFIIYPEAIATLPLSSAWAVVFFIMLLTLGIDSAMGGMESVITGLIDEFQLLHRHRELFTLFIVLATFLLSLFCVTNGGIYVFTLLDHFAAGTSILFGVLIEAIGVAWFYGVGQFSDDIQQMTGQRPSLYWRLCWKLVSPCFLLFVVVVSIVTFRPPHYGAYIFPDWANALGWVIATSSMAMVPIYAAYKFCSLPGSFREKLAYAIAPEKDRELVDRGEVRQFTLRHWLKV
Assay [9] concerns the target Histamine H1 receptor (Homo sapiens) (UniProt P35367).
Assay [10] deals with T1, Alpha-2B adrenergic receptor (Homo sapiens) (UniProt P18089).
T1 sequence (whole entry): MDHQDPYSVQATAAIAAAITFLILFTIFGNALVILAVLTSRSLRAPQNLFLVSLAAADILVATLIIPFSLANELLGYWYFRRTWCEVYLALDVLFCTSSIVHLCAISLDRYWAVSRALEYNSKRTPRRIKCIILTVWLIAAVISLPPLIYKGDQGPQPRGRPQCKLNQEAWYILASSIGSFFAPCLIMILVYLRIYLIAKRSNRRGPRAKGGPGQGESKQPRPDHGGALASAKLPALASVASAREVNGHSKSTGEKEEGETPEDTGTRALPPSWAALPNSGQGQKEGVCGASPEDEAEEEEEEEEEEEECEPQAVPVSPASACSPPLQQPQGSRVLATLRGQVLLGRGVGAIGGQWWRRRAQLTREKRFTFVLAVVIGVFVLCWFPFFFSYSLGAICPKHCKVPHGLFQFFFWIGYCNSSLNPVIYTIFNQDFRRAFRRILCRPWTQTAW

The target of assay [11] is T2, Alpha-2C adrenergic receptor (Homo sapiens) (UniProt P18825).
T2 sequence (whole entry): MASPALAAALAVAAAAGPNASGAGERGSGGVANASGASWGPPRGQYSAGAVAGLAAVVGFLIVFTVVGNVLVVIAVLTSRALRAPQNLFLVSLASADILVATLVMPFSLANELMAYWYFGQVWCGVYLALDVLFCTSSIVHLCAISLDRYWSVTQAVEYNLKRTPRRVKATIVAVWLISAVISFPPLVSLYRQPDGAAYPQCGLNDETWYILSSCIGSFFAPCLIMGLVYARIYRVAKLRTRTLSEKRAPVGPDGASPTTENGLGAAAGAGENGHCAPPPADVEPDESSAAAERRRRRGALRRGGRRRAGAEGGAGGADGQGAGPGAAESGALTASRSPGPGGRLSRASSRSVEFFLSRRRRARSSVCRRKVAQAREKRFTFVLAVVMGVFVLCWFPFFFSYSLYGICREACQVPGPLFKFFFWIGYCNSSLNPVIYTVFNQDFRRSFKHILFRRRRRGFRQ

In assay [12] the target is T3, Muscarinic acetylcholine receptor M2 (Homo sapiens) (UniProt P08172).
T3 sequence (whole entry): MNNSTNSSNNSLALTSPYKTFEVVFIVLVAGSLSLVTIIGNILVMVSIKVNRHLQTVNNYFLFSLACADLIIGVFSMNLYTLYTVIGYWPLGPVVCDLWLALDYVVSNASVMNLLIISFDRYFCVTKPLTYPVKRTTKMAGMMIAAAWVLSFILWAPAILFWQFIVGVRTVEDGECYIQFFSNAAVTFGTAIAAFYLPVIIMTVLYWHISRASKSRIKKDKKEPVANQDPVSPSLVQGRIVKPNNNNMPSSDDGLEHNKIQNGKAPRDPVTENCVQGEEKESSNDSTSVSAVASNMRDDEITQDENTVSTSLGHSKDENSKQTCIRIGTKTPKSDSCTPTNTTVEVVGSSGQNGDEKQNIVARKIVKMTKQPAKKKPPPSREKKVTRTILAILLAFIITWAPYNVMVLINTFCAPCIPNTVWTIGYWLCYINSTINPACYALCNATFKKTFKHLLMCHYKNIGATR

For assay [13], the target named is Delta-type opioid receptor (Homo sapiens) (UniProt P41143).
Chain of Delta-type opioid receptor (Homo sapiens) (P41143 whole entry): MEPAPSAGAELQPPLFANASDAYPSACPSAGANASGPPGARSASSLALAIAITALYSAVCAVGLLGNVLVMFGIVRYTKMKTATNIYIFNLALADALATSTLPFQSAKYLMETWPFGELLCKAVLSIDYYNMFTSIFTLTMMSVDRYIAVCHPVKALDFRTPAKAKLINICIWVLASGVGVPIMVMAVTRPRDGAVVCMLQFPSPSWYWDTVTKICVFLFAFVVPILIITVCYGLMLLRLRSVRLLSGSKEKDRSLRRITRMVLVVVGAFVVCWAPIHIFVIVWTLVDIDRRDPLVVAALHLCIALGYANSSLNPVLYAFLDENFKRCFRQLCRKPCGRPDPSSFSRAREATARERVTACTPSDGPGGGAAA
In assay [14] the target is Translocator protein (Homo sapiens) (UniProt P30536).
Chain of Translocator protein (Homo sapiens) (P30536 whole entry): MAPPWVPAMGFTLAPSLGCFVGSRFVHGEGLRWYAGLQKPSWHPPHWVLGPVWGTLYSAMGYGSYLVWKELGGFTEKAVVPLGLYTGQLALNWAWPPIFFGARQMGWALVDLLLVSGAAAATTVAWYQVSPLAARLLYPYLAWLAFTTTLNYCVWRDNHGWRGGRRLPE
Assay [15] deals with T4, Muscarinic acetylcholine receptor M1 (Homo sapiens) (UniProt P11229).
T4 sequence (whole entry): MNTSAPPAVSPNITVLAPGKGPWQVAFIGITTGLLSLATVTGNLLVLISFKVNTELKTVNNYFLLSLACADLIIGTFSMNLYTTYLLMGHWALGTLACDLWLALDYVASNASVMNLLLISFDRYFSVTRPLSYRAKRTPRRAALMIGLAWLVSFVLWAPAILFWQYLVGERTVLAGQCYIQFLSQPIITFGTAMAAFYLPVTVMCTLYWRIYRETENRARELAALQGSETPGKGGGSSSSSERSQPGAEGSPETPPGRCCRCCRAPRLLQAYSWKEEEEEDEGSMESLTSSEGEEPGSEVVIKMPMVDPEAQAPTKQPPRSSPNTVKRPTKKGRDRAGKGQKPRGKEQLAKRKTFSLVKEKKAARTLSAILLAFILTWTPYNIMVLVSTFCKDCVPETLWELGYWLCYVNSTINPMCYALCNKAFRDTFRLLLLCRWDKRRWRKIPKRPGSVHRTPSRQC

Assay [16] has as its target D(1A) dopamine receptor (Homo sapiens) (UniProt P21728).
Assay [17] deals with 5-hydroxytryptamine receptor 5A (Homo sapiens) (UniProt P47898).
Chain of 5-hydroxytryptamine receptor 5A (Homo sapiens) (P47898 whole entry): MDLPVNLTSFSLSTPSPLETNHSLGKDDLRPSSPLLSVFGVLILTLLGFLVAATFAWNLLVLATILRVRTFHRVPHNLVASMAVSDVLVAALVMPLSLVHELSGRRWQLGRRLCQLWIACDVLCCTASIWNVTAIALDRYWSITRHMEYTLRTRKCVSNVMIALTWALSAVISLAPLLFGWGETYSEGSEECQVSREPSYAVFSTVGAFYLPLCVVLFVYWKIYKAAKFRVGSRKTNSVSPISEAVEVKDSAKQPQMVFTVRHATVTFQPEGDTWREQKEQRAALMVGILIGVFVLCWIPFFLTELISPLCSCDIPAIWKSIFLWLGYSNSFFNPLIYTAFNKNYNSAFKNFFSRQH

Chain of D(1A) dopamine receptor (Homo sapiens) (P21728 whole entry): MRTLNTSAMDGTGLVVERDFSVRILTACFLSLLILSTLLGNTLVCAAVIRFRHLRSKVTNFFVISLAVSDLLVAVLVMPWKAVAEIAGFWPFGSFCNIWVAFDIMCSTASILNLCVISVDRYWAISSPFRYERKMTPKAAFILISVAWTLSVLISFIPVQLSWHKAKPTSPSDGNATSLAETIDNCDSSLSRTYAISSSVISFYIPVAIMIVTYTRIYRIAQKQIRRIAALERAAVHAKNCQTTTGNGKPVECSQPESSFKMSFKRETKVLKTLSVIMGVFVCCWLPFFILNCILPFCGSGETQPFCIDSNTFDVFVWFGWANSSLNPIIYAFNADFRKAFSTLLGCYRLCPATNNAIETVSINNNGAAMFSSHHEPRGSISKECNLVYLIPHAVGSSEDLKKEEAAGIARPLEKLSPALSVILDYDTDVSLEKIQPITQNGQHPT
Chain of 5-hydroxytryptamine receptor 2B (Homo sapiens) (P41595 whole entry): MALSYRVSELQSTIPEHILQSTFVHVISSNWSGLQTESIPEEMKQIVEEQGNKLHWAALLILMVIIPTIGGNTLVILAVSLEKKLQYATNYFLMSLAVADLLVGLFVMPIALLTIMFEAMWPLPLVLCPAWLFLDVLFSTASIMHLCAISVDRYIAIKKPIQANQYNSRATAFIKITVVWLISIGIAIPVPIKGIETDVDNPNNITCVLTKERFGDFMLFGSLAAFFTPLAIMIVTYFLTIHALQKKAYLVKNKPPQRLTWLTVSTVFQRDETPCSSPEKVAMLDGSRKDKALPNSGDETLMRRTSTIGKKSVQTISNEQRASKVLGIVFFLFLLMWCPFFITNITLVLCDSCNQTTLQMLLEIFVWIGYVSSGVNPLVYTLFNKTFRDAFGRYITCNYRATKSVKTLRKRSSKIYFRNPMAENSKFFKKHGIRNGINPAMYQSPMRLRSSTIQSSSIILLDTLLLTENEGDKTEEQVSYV
Chain of Histamine H1 receptor (Homo sapiens) (P35367 whole entry): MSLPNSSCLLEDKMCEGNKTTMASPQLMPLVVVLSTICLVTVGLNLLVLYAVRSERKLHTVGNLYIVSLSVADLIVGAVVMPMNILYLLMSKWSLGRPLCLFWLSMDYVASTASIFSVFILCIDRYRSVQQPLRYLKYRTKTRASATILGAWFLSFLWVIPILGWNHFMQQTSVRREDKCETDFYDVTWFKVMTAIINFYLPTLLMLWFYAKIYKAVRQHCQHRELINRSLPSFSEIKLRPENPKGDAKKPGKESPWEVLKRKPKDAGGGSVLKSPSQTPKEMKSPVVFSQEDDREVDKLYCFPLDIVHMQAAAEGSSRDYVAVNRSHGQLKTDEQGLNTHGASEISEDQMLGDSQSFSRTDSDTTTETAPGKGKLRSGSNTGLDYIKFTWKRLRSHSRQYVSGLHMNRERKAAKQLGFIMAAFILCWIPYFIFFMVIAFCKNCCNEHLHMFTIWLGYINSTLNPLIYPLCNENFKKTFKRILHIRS
Chain of Mu-type opioid receptor (Homo sapiens) (P35372 whole entry): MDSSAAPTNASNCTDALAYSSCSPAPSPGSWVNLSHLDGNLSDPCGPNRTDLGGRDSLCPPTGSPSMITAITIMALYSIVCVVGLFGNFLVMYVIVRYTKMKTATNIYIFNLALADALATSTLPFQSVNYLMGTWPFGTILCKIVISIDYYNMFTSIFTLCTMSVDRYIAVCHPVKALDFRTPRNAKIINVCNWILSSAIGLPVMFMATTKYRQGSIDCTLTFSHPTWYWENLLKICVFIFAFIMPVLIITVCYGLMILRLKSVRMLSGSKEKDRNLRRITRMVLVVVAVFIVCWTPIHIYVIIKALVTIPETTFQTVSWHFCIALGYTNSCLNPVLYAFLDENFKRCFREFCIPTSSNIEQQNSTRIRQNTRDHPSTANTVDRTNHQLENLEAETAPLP
Chain of Muscarinic acetylcholine receptor M3 (Homo sapiens) (P20309 whole entry, looked up): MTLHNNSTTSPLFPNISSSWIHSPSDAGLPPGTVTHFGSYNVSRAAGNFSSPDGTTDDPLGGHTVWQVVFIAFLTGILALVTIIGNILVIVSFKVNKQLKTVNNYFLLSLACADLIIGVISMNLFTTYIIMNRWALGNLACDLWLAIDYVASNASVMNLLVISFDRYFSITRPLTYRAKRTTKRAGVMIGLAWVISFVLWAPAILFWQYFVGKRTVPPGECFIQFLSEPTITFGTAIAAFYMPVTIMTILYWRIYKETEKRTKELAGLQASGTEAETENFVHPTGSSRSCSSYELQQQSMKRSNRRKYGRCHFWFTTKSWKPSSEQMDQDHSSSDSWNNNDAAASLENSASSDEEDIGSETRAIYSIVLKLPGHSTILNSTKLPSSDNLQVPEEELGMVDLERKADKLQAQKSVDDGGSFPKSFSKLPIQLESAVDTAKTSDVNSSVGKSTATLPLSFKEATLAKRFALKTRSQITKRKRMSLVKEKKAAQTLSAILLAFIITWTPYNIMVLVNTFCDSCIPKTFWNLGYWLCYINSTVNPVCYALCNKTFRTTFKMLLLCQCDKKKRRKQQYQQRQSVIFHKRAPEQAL

The term inhibition denotes the relative decrease from the control value, in per cent. For the compound `O=c1ccn([C@@H]2O[C@H](COP(=O)(O)OP(=O)(O)O)[C@@H](O)[C@H]2O)c(=O)[nH]1`, the inhibition in assay [1] was 44%; in assay [2], 2.51%; in [3] it was 0.47%; in assay [4] it was 4.23%; in [5], -5.04%; in assay [6], -7.58%. The inhibition was 7.98% in assay [7]; 6.84% in assay [8]; 34.8% in assay [9]; -3.44% in assay [10]; -6.08% in assay [11]; 15.9% in assay [12]. Besides, the inhibition in assay [13] was 14.1%; in [14], 5.14%.
As to `Cc1csc2c(N[C@@H](C)CN3CCN(S(=O)(=O)c4ccc(Cl)c(Cl)c4)CC3)ncnc12`, the inhibition in assay [1] is 14.7%; in [15] it was 6.35%; in [2] it was -6%; in assay [3], 32.3%; in assay [4] it was 86%; in [16], -2.84%. The inhibition in assay [6] was 45.2%; in assay [7] it was 9.69%; in assay [9], 20.4%; in assay [10] it was -6.72%; in [11], 14.6%; in assay [12], 1.88%. Moreover, the inhibition in assay [13] is 4.01%; in assay [14], 73.6%.
Turning to `Cc1nc(C(=O)N2CCC[C@H]2Cc2nnc(-c3ccccc3)o2)c(-c2ccccc2F)s1`, the inhibition in assay [1] is 7.98%; in assay [15], -9.02%; in assay [2], -8.01%; in assay [3] it was 92.6%; in assay [4], 35.9%; in [16], 7.87%. The inhibition is -4.23% in assay [6]; -2.37% in assay [7]; 26.1% in [8]; 30.3% in [9]; -1.4% in assay [11]; 71.2% in [12]. Also, the values for the inhibition in assay [17], in [13] and in assay [14] were 12.1%, -2.06% and 57.6%, respectively.
In the case of `CC[C@@H]1CN2C(=O)N(C)c3nc(-c4ccccc4)[nH]c3C2=N1`, the inhibition is -6.84% in assay [1]; 1.36% in assay [15]; -6.97% in assay [2]; -1.79% in assay [3]; 64.2% in [4]; 0.52% in assay [6]. The inhibition in [7] was -3.92%; in assay [8], 0.34%; in assay [9] it was 27.4%; in assay [10], -5.85%; in assay [11] it was -1.57%; in assay [12], -8.11%. Further, the values for the inhibition in assay [17], in assay [13] and in assay [14] were 14.4%, -7.99% and -3.48%, respectively.
Consider `COc1ccc(/C=C/CCCCOc2ccc(C(=O)c3cccc(C(=O)O)c3)cc2CCC(=O)O)cc1`, for which the inhibition in [1] was 22.4%; in [2], -5.39%; in assay [3], -2.42%; in [4], 11.6%; in assay [16], -0.17%; in assay [5], 31.8%. The inhibition in assay [6] was 21.3%; in assay [7], 4.74%; in [8], 23.6%; in [9], 18.1%; in [10] it was 29.1%; in [11], 1.56%. Also, the inhibition in assay [12] is 7.46%; in [17], -8.69%; in assay [13], 46.8%; in assay [14], 35.5%.
As to `COc1ccc(S(=O)(=O)N2c3ccc(Cl)cc3[C@](O)(c3ccccc3Cl)[C@@H]2C(=O)N2CCC[C@H]2C(N)=O)cc1OC`, the inhibition was 38.8% in [1]; 0.08% in assay [3]; 16.4% in [4]; 6.02% in assay [5]; 15.4% in assay [6]; 21.7% in [7]. The inhibition in [8] was 42.4%; in assay [9], 5.97%; in assay [10], 0.34%; in assay [11], -3.82%; in assay [12], 29.5%; in assay [17], -7.91%. Further, the inhibition in [13] was 19%.
With `Cc1cc(C(=O)N2Cc3cnn(C)c3Nc3ccccc32)ccc1CNC(=O)N1CCC[C@H]1C(=S)N1CCCN(C)CC1`, the inhibition was 12.3% in assay [1]; 49.6% in assay [15]; 65.2% in assay [2]; 18.3% in [3]; -7.44% in assay [4]; -3.37% in assay [16]. Besides, the inhibition in [6] was 46.9%; in assay [8], 19.8%; in [9] it was 24.4%; in [10], 2.87%; in assay [11] it was -5.77%; in [12], 68.4%. Moreover, the figures for the inhibition in [17] and in assay [14] were 35% and -9.04%, respectively.
Consider `C[C@@H](NCCc1ccc(O)cc1)[C@@H](O)c1ccc(O)cc1` (relative stereo), for which the inhibition was 51.1% in assay [1]; 24.4% in assay [15]; 18.1% in [2]; 34.1% in assay [3]; 75% in [4]; -9.44% in assay [16]. The inhibition was 8.2% in assay [6]; 5.86% in assay [7]; 39.6% in assay [8]; 24.2% in assay [9]; 5.66% in assay [10]; 23.6% in [11]. For the same compound, the results for the inhibition in assay [12], in assay [13] and in [14] were 3.91%, 17.5% and 3.95%, respectively.
As for `CC(C)(N)C(=O)N[C@H](COCc1ccccc1)C(=O)N1CCC2(CC1)CN(S(C)(=O)=O)c1ccccc12`, the inhibition in assay [1] was 12.8%; in assay [3] it was 3.09%; in assay [4] it was 16.4%; in assay [5], 30.2%; in assay [6], 5.6%; in assay [7], 4.09%. The inhibition was 39.5% in assay [8]; 24.6% in [9]; -5.98% in assay [10]; 3.03% in [11]; 1.1% in [12]; 3.11% in assay [13]. In [14], the inhibition was 9.25%.
